Experimental data: US7034026B2, “Inhibitors of Akt activity” (Merck & Co., Inc., priority 2001, dated 2006)

Test system: PKC (mix of isoforms)
Experiment: PKC assay (counter screen)
Type: biochemical
Conditions: myelin basic protein substrate, 10 μM ATP; read-out: Counter screens IC50 (μM) PKC
Description: Final assay concentrations were as follows: 0.25 mM EGTA, 0.4 mM CaCl, 20 mM Tris pH 7.5, 10 mM MgCl, 1 mM 2-mercaptoethanol, 0.32 mg/ml phosphatidylserine, 0.032 mg/ml diacylglycerol, 10 μM ^33P-ATP, 70 μg/ml MBP, 10 ng/ml PKC, 0.1 mg/ml BSA.
Assays are performed using 96 deep well assay plates. In each assay well 10 μl of solvent control or appropriate inhibitor dilution with 5 μl ^33P-ATP (components #5 and #3) were premixed. […] The liquid in the assay wells was thoroughly mixed and the assay reactions incubated for 20 minutes at room temperature. The reactions were stopped by adding 100 mM EDTA (50 μl) and 100 mM sodium pyrophosphate (50 μl) and mixing. Phosphorylated MBP was collected on PVDF membranes in 96 well filter plates and quantitated by scintillation counting.

| Compound | IC50 [µM] |
| --- | --- |
| CC(C)(N)c1ccc(-c2nc3ccccc3nc2-c2ccccc2)cc1 [Compound 1, 2-[4-(2-aminoprop-2-yl)phenyl]-3-phenylquinoxaline] | > 80 |
| Nc1ccc(-c2nc3ccccc3nc2-c2ccc(N)cc2)cc1 [Compound 2, 2,3-bis(4-aminophenyl)-quinoxaline] | > 80 |
